US20120245344A1 (NIPPON CHEMIPHAR CO., LTD., priority 2009, published 2012)
Entries after “also recorded” stand apart in the source; their conditions may differ.

Tests used:
human GPR119 = molecular target: T1, human GPR119 (Homo sapiens, UniProt Q8TDV5); test: Measurement of intracellular cAMP in stable cell line expressing human GPR119 (GPR119 agonist effect); assay type: cell-based; settings: for EC50: increase of intracellular cAMP, Flp-in T-Rex-293 cells expressing human GPR119, 37° C. for 30 minutes; for GPR119 agonist effect (in words): statement in words on Tables 10 to 13
T1 construct: expressed in transfected cells; host or cells: Flp-in T-Rex-293 cells (Invitrogen #R78007), plasmid pcDNA5/FRT/TO, expression induced with tetracycline
T1 sequence (Q8TDV5 1-335): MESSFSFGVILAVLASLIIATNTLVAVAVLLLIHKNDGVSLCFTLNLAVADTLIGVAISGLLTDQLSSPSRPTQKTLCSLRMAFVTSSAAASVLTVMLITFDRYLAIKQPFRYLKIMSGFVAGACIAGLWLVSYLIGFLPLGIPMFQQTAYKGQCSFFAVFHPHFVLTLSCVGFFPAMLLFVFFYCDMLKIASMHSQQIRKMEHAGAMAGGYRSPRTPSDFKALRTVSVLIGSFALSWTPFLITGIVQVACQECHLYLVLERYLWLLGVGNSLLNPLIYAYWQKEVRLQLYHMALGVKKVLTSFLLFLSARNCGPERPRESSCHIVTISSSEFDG
Source text: The GPR119 agonist effect is studied by measuring the effect of an analyte on increase of intracellular amount of cAMP in human GPR119 introduced cells. The testing method is described below.
Human GPR119 gene (NM 178471) is purchased from ATCC (ATCC No. 10807349), and is amplyfied according to PCR to form BamHI site at 5′ side and Apa I site at 3′ side. The primers are […] (sequence No. 1) and […] (sequence No. 2). The PCR conditions are described below.
The double-stranded DNA is thermally denatured using a DNA polymerase (KOD-Plus-Ver. 2; TOYOBO #KOD-211) at 98° C. for 10 seconds in one cycle. The denatured single-stranded DNA is annealed with the primers at 55° C. for 30 seconds. The DNA is subjected to an extension reaction at 68° C. for 1 minute and 15 seconds. The above-mentioned steps are repeated in 35 cycles. The PCR product is inserted into pcDNA5/FRT/TO (Invitrogen #V6520-20) plasmid. Flp-in T-Rex-293 cells (Invitorogen #R78007) are transfected with the obtained plasmid. The method of transfection is conducted in accordance with the protocol of the product.
(§1) The stable cell line expressing human GPR119 prepared in the above-mentioned method is plated on a 96-well plate at the concentration of 2,500 cells/well using Dulbecco's Modified Eagle Medium (DMEM) containing 10% fetal bovine serum (FBS). Twenty-four hours after plating, tetracyclin (Invitrogen #Q10019) is added at the final concentration of 20 ng/mL to induce hGPR119 gene expression. Twenty-four hours after, the medium is removed, and the cells are stimulated with an assay buffer (0.5 mM IBMX PBS (−)) containing the test compound at 37° C. for 30 minutes. The amount of the intracellular cAMP is measured using a commercially available kit (HitHunter™ cAMP XS+Assay: GE Healthcare #90007503) and a reader (FLUOstar Optima: BMG LABTECH). The test compound is dissolved in 100% DMSO, and added at the final concentration of 1%.
Human GPR119 gene (NM 178471) was purchased from ATCC (ATCC No. 10807349), and is amplyfied according to PCR to form BamHI site at 5′ side and Apa I site at 3′ side. The primers were […] (sequence No. 1) and […] (sequence No. 2). The PCR conditions are described below. The double-stranded DNA was thermally denatured using a DNA polymerase (KOD-Plus-Ver. 2; TOYOBO #KOD-211) at 98° C. for 10 seconds in one cycle. The denatured single-stranded DNA was annealed with the primers at 55° C. for 30 seconds. The DNA was subjected to an extension reaction at 68° C. for 1 minute and 15 seconds. The above-mentioned steps were repeated in 35 cycles. The PCR product was inserted into pcDNA5/FRT/TO (Invitrogen #V6520-20) plasmid. Flp-in T-Rex-293 cells (Invitorogen #R78007) were transfected with the obtained plasmid. The method of transfection was conducted in accordance with the protocol of the product.
as §1, with “method was” for “method is”, “#Q10019) was” for “#Q10019) is”, “medium was” for “medium is”, “cells were” for “cells are”, “cAMP was” for “cAMP is”, “compound was” for “compound is”
The examination was performed by the method similar to Example 87 Pharmacological experiment 1-(1), -(2).

[1] = system: glycemic excursions after glucose administration in normal mice; test: Oral glucose tolerance test in normal mice; assay type: in vivo, mice (male ICR); settings: for Inhibition rate (%): 30 min before glucose 3 g/kg, area under the glycemic excursion curve 0-120 min versus vehicle
Experimental: In this experiment, the inhibitory effect of an analyte on glycemic excursions is examined after glucose administration in normal mice. The test methods are described below.
(§2) Male 9-week-old ICR mice, habituated to the experimental environment for two weeks, are fasted for 18 hours and used to this experiment. Mice are orally administered the analyte or vehicle (polyethylene glycol 400:ethanol:Tween 80=8:1:1). After 30 minutes, they were orally given glucose at the dose of 3 g/kg.
Blood was collected at just before the analyte or vehicle administration (−30 minutes), immediately before glucose challenge (0 minute), 20 minutes, 40 minutes, 60 minutes, and 120 minutes after glucose ingestion to determine blood glucose levels.
Inhibition rate (%) of the analyte versus vehicle in areas under the glycemic excursion curve between 0 and 120 min after glucose challenge is determined.
In this experiment, we examined the inhibitory effect of test compound on glycemic excursions after glucose administration in normal mice. The test methods are shown as follows.
as §2, with “were” for “are”, “test compound” for “analyte”, “400:ethanol:Tween80=8:1:1), and after” for “400:ethanol:Tween 80=8:1:1). After”
Blood was collected at just before the test compound or vehicle administration (−30 min), immediately before glucose challenge (0 min), 20 min, 40 min, 60 min and 120 min after glucose ingestion and then blood glucose levels were determined.
Inhibition rate (%) of the test compound versus vehicle in areas under the glycemic excursion curve between 0 and 120 min after glucose challenge was determined.
Except for the dose of test compounds made 1 mg/kg, the examination was performed by the method similar to Example 89 oral glucose tolerance test in normal mice.

[2] = 3 mg/kg, statement in words on Table 14
[3] = 1 mg/kg, statement in words on Table 15

Row | SMILES | melting point | EC50 (human GPR119) | GPR119 agonist effect (in words) (human GPR119) | Inhibition rate (%) ([1]; 3 mg/kg oral) | inhibitory effect on glycemic excursions (in words) [1, 2] | Inhibition rate (%) ([1]; 1 mg/kg oral) | inhibitory effect on glycemic excursions (in words) [1, 3]
1 | CC(C)(C)OC(=O)N1CCC(c2ccc(COc3ccc4c(c3)C=CS4(=O)=O)nc2)CC1 [Example 10, tert-Butyl 4-[2-(1,1-dioxo-1H-benzo[b]thiophen-5-yloxymethyl)pyridin-5-yl]piperidine-1-carboxylate] | 154 to 157 °C | 353 nM | – | – | – | – | –
2 | CC(C)(C)OC(=O)N1CCC(c2ccc(Cn3ccc4cc(S(C)(=O)=O)c(F)cc43)nc2)CC1 [Example 24, tert-Butyl 4-[2-(6-fluoro-5-methanesulfonylindol-1-ylmethyl)pyridin-5-yl]piperidine-1-carboxylate] | – | 19 nM | – | – | – | 37.9% | excellent inhibitory effect on glycemic excursions; also recorded: excellent inhibitory effect of glycemic excursions
3 | CC(C)OC(=O)N1CCC(c2ccc(Cn3ccc4cc(-n5cnnn5)cc(F)c43)nc2)CC1 [Example 54, Isopropyl 4-[2-[7-fluoro-5-(tetrazol-1-yl)indol-1-ylmethyl]pyridin-5-yl]piperidine-1-carboxylate] | – | 9.6 nM | – | – | – | 36.0% | excellent inhibitory effect on glycemic excursions; also recorded: excellent inhibitory effect of glycemic excursions
4 | CC(C)(C)OC(=O)N1CCC(c2ccc(CN3CCc4cc(-n5cnnn5)cc(F)c43)nc2)CC1 [Example 38, tert-Butyl 4-[2-[7-fluoro-5-(tetrazol-1-yl)indolin-1-ylmethyl]pyridin-5-yl]piperidine-1-carboxylate] | – | 5.4 nM | excellent GPR119 agonist effect | – | – | – | –

Second part, led by results:

Row | melting point | EC50 (human GPR119) | GPR119 agonist effect (in words) (human GPR119) | SMILES | Inhibition rate (%) ([1]; 3 mg/kg oral) | inhibitory effect on glycemic excursions (in words) [1, 2] | Inhibition rate (%) ([1]; 1 mg/kg oral) | inhibitory effect on glycemic excursions (in words) [1, 3]
5 | 202 to 205 °C | – | – | CC(C)(C)OC(=O)N1CCC(c2ccc(C(=O)N3CCc4cc(S(C)(=O)=O)ccc43)nc2)CC1 [Example 8, tert-Butyl 4-[2-(5-methanesulfonylindoline-1-carbonyl)pyridin-5-yl]piperidine-1-carboxylate] | – | – | – | –
6 | – | 20.5 nM | excellent GPR119 agonist effect | CC(C)(C)OC(=O)N1CCC(c2ccc(CN3CCc4cc(S(C)(=O)=O)ccc43)nc2)CC1 [Example 2] | 33.7% | excellent inhibitory effect on glycemic excursions; also recorded: excellent inhibitory effect of glycemic excursions | – | –
7 | – | 21.2 nM | – | CC(C)(C)OC(=O)N1CCC(c2ccc(Cn3ccc4cc(S(C)(=O)=O)ccc43)nc2)CC1 [Example 1, tert-Butyl 4-[2-(5-methanesulfonylindol-1-ylmethyl)pyridin-5-yl]piperidine-1-carboxylate] | 37.9% | excellent inhibitory effect on glycemic excursions; also recorded: excellent inhibitory effect of glycemic excursions | – | –
